Experimental data from patent US20140082772A1, “Herbicide-Tolerant Plants” (priority 2010, published 2014).

What was measured:
[1] = test system: AHAS-inhibitor susceptible WOSR line; assay: Plot pre-emergence crop tolerance (PHYTOX), Example 4, susceptible line; format: in vivo, Brassica napus
Method: (§1) Plants of an AHAS-inhibitor tolerant WOSR line and plants of an AHAS-inhibitor susceptible WOSR line are sown side by side in a plot. A pre-emergence treatment of herbicides is applied to the plants by means of fine distributed nozzles. There are four replications of each treatment.
(§2) The evaluation for crop-tolerance is assessed as PHYTOX symptom caused by the chemical compounds carried out using a scale from 0 to 100%, compared to the untreated control plants. Here, 0 means no damage and 100 means complete destruction of the plants.

[2] = test system: AHAS-inhibitor tolerant WOSR line; assay: Plot pre-emergence crop tolerance (PHYTOX), Example 4, tolerant line; format: in vivo, Brassica napus
Method: as §1, §2

[3] = test system: AHAS-inhibitor tolerant WOSR line; assay: Greenhouse post-emergence herbicide crop damage, Example 1, tolerant line; format: in vivo, Brassica napus; conditions: post-emergence at GS/BBCH 12, assessed 21-22 DAT
Method: (§3) Each pot is planted with two plants, the plants are watered from beneath and fertilized according there requirement. The pots are stored side by side in a greenhouse at 12° C. at the emergence phase. The temperature increases to 15-20° C. three weeks after sowing.
(§4) A post-emergence treatment of herbicides is applied to the plants by means of fine distributed nozzles and a water use rate of 200 L/ha at the growth stage GS/BBCH 12 (2 true leaf stage). The herbicides are tested at different rates. Five cultivar replicates are carried out per rate.
(§5) The evaluation of efficacy is assessed as crop damage caused by the herbicides using a scale from 0 to 100%, compared to the untreated control plants. Here, 0 means no damage and 100 means complete destruction of the plants. The level of efficacy is assessed 21-22 days after treatment (DAT). The efficacy results are presented as ED50 values.

[4] = test system: second AHAS-inhibitor susceptible WOSR line; assay: Greenhouse post-emergence herbicide crop damage, Example 2, susceptible line; format: in vivo, Brassica napus; conditions: post-emergence at GS/BBCH 10, assessed 19 DAT
Method: as §3, with “Plants of an AHAS-inhibitor tolerant WOSR line and plants of a second AHAS-inhibitor susceptible WOSR line are sown in 10 cm pots with a sandy loam. Each” for “Each”
(§6) A post-emergence treatment of herbicides is applied to the plants by means of fine distributed nozzles and a water use rate of 200 L/ha at the growth stage GS/BBCH 10. The herbicides are tested at different rates. Twelve cultivar replicates are carried out per rate.
as §5, with “19” for “21-22”

[5] = test system: AHAS-inhibitor tolerant WOSR line; assay: Greenhouse post-emergence herbicide crop damage, Example 2, tolerant line; format: in vivo, Brassica napus; conditions: post-emergence at GS/BBCH 10, assessed 19 DAT
Method: as §3, with “Plants of an AHAS-inhibitor tolerant WOSR line and plants of a second AHAS-inhibitor susceptible WOSR line are sown in 10 cm pots with a sandy loam. Each” for “Each”
as §6
as §5, with “19” for “21-22”

[6] = test system: first AHAS-inhibitor susceptible WOSR line; assay: Greenhouse post-emergence herbicide crop damage, Example 1, susceptible line; format: in vivo, Brassica napus; conditions: post-emergence at GS/BBCH 12, assessed 21-22 DAT
Method: as §3, §4, §5

AHAS-tolerant SOSR line = assay: Plot post-emergence crop tolerance (PHYTOX), Example 3, SOSR; format: in vivo, Brassica napus; conditions: post-emergence at GS 12/13, 15 DAT, crop GS 13/14, AI rate g/ha: flupyrsulfuron-methyl-sodium 5, thifensulfuron-methyl 15, tritosulfuron 25, tribenuron-methyl 15
Method: as §1, with “AHAS-tolerant SOSR” for “AHAS-inhibitor susceptible WOSR”, “post-emergence” for “pre-emergence”, “nozzles at the growth stage GS/BBCH 12/13.” for “nozzles.”
as §2

[7] = test system: AHAS-inhibitor tolerant WOSR line; assay: Plot post-emergence crop tolerance (PHYTOX), Example 3, WOSR; format: in vivo, Brassica napus; conditions: post-emergence at GS 12/13, 15 DAT, crop GS 14/15, AI rate g/ha: flupyrsulfuron-methyl-sodium 5, thifensulfuron-methyl 15, tritosulfuron 25, tribenuron-methyl 15
Method: as §1, with “AHAS-tolerant SOSR” for “AHAS-inhibitor susceptible WOSR”, “post-emergence” for “pre-emergence”, “nozzles at the growth stage GS/BBCH 12/13.” for “nozzles.”
as §2

[8] = test system: spring-type B. napus cultivar, 45A77; conditions: PM-mutant gene-containing spring-type cultivar 45A77; R. Degenhardt et al., Weed Technology 19, 2005, 608; cited from earlier work
[9] = 10 DAT, crop GS 10/11, AI rate g/ha: propoxycarbazone 7, sulfosulfuron 2, flupyrsulfuron-methyl 1.8, amidosulfuron 2.75
[10] = 29 DAT, crop GS 11/13, AI rate g/ha: propoxycarbazone 7, sulfosulfuron 2, flupyrsulfuron-methyl 1.8, amidosulfuron 2.75

COc1cc(OC)nc(NC(=O)NS(=O)(=O)N(C)S(C)(=O)=O)n1 [Amidosulfuron]
PHYTOX % [1, 9]: 100% | PHYTOX % [1, 10]: 100% | PHYTOX % [2, 9]: 0% | PHYTOX % [2, 10]: 0%

COc1nc(C)nc(NC(=O)NS(=O)(=O)c2ccccc2Cl)n1 [Chlorsulfuron]
ED50 (crop damage, scale 0 to 100% vs untreated control) [3]: 2.8 g/ai/ha | ED50 (crop damage, scale 0 to 100% vs untreated control) [4]: 0.04 g/ai/ha | ED50 (crop damage, scale 0 to 100% vs untreated control) [5]: 11.2 g/ai/ha | ED50 (crop damage, scale 0 to 100% vs untreated control) [6]: 0.42 g/ai/ha

COc1ncc(F)c2nc(S(=O)(=O)Nc3c(F)cccc3F)nn12 [Florasulam]
ED50 (crop damage, scale 0 to 100% vs untreated control) [3]: 6.53 g/ai/ha | ED50 (crop damage, scale 0 to 100% vs untreated control) [4]: 0.28 g/ai/ha | ED50 (crop damage, scale 0 to 100% vs untreated control) [5]: 4.9 g/ai/ha | ED50 (crop damage, scale 0 to 100% vs untreated control) [6]: 1.51 g/ai/ha

COC(=O)c1ccc(C(F)(F)F)nc1S(=O)(=O)NC(=O)Nc1nc(OC)cc(OC)n1 [Flupyrsulfuron-methyl-sodium]
ED50 (crop damage, scale 0 to 100% vs untreated control) [3]: 63316.17 g/ai/ha | PHYTOX % (AHAS-tolerant SOSR line): 19% | ED50 (crop damage, scale 0 to 100% vs untreated control) [4]: 0.79 g/ai/ha | ED50 (crop damage, scale 0 to 100% vs untreated control) [5]: 147.97 g/ai/ha | ED50 (crop damage, scale 0 to 100% vs untreated control) [6]: 0.58 g/ai/ha | PHYTOX % [7]: 11%

COC(=O)c1ccc(C(F)(F)F)nc1S(=O)(=O)NC(=O)Nc1nc(OC)cc(OC)n1 [Flupyrsulfuron-methyl]
PHYTOX % [1, 9]: 100% | PHYTOX % [1, 10]: 100% | PHYTOX % [2, 9]: 0% | PHYTOX % [2, 10]: 0%

COC(=O)c1ccccc1S(=O)(=O)NC(=O)Nc1nc(C)nc(OC)n1 [Metsulfuron-methyl]
ED50 (crop damage, scale 0 to 100% vs untreated control) [3]: 5.06 g/ai/ha | ED50 (crop damage, scale 0 to 100% vs untreated control) [4]: 0.17 g/ai/ha | ED50 (crop damage, scale 0 to 100% vs untreated control) [5]: 2.28 g/ai/ha | ED50 (crop damage, scale 0 to 100% vs untreated control) [6]: 0.57 g/ai/ha

CCCOc1nn(C(=O)[N-]S(=O)(=O)c2ccccc2C(=O)OC)c(=O)n1C.[Na+] [Propoxycarbazone-sodium]
ED50 (crop damage, scale 0 to 100% vs untreated control) [3]: 67.43 g/ai/ha | ED50 (crop damage, scale 0 to 100% vs untreated control) [4]: 0.17 g/ai/ha | ED50 (crop damage, scale 0 to 100% vs untreated control) [5]: 42.07 g/ai/ha | ED50 (crop damage, scale 0 to 100% vs untreated control) [6]: 2.16 g/ai/ha

CCCOc1nn(C(=O)[N-]S(=O)(=O)c2ccccc2C(=O)OC)c(=O)n1C.[Na+] [Propoxycarbazone]
PHYTOX % [1, 9]: 100% | PHYTOX % [1, 10]: 100% | PHYTOX % [2, 9]: 0% | PHYTOX % [2, 10]: 0%

CCS(=O)(=O)c1nc2ccccn2c1S(=O)(=O)NC(=O)Nc1nc(OC)cc(OC)n1 [Sulfosulfuron]
ED50 (crop damage, scale 0 to 100% vs untreated control) [3]: 2417.06 g/ai/ha | ED50 (crop damage, scale 0 to 100% vs untreated control) [4]: 0.01 g/ai/ha | ED50 (crop damage, scale 0 to 100% vs untreated control) [5]: 3.29 g/ai/ha | PHYTOX % [1, 9]: 99% | PHYTOX % [1, 10]: 99% | PHYTOX % [2, 9]: 0% | PHYTOX % [2, 10]: 0% | ED50 (crop damage, scale 0 to 100% vs untreated control) [6]: 1.70 g/ai/ha

COC(=O)c1sccc1S(=O)(=O)NC(=O)Nc1nc(C)nc(OC)n1 [Thifensulfuron-methyl]
PHYTOX % (AHAS-tolerant SOSR line): 23% | PHYTOX % [7]: 13%

COC(=O)c1ccccc1S(=O)(=O)NC(=O)N(C)c1nc(C)nc(OC)n1 [Tribenuron-methyl]
ED50 (crop damage, scale 0 to 100% vs untreated control) [3]: 25.88 g/ai/ha | PHYTOX % (AHAS-tolerant SOSR line): 25% | ED50 (crop damage, scale 0 to 100% vs untreated control) [4]: 0.11 g/ai/ha | ED50 (crop damage, scale 0 to 100% vs untreated control) [5]: 9.11 g/ai/ha | ED50 (crop damage, scale 0 to 100% vs untreated control) [6]: 2.59 g/ai/ha | PHYTOX % [7]: 17%

COc1nc(NC(=O)NS(=O)(=O)c2ccccc2C(F)(F)F)nc(C(F)(F)F)n1 [Tritosulfuron]
ED50 (crop damage, scale 0 to 100% vs untreated control) [3]: 42.30 g/ai/ha | PHYTOX % (AHAS-tolerant SOSR line): 53% | ED50 (crop damage, scale 0 to 100% vs untreated control) [4]: 1.76 g/ai/ha | ED50 (crop damage, scale 0 to 100% vs untreated control) [5]: 2.96 g/ai/ha | ED50 (crop damage, scale 0 to 100% vs untreated control) [6]: 0.39 g/ai/ha | PHYTOX % [7]: 43%

COc1nc(C)nc(NC(=O)NS(=O)(=O)c2ccsc2C(=O)O)n1 [thifensulfuron]
effect of application on the crop [8]: reduced canola biomass, herbicide injury symptoms, or delayed maturity

Trisulfuron-methyl [Trisulfuron-methyl 500]
ED50 (crop damage, scale 0 to 100% vs untreated control) [3]: 41.81 g/ai/ha | ED50 (crop damage, scale 0 to 100% vs untreated control) [4]: 0.03 g/ai/ha | ED50 (crop damage, scale 0 to 100% vs untreated control) [5]: 4.48 g/ai/ha | ED50 (crop damage, scale 0 to 100% vs untreated control) [6]: 3.36 g/ai/ha
